From patent US20220142995A1, “DUAL ATM AND DNA-PK INHIBITORS FOR USE IN ANTI-TUMOR THERAPY” (XRAD Therapeutics, Inc., priority 2019, published 2022)

What was measured:
[1] = test system: FADU subcutaneous human xenograft; assay: In vivo tumor growth delay study, FADU subcutaneous human xenograft mouse model
Description: (§1) Tumor Studies. Female NCr nu/nu mice (Crl:NU(NCr)-Foxn1 nu, Strain 490) were obtained from Charles River at 5-6 weeks of age. All animal procedures used in these studies were approved by the Institutional Animal Care and Use Committee (IACUC) at Duke University.
(§2) FADU or MDA-MB-231 cells were harvested during log phase growth for in vivo implantation. The resuspended cells were washed three times in phosphate buffered saline (PBS) before preparing the working dilution in PBS. FADU cells were diluted to 1×10^7 cells/mL and MDA-MB-231 cells were diluted to 5×10^7 cells/mL. Each mouse was injected subcutaneously in the right flank with 100 μL of the cellular suspension. Tumor growth was monitored until the tumors reached a target volume of at least 100 mm^3, at which point mice were randomly stratified into four treatment groups.
(§3) Following implantation of the tumor cell lines, mice were monitored once weekly for tumor development. Upon detection, tumors were measured in two dimensions using digital calipers. Tumors were treated after reaching at least 100 mm^3 and were measured two to three times weekly following enrollment in one of the treatment groups. The study endpoint was defined as tumor quintupling from the volume at time of treatment.
The vehicle used in this study was 0.5% (Hydroxypropyl)methyl cellulose (HPMC) and 0.2% Tween80 dissolved in deionized water. The pH of the vehicle was adjusted to 7.0-8.0 and the vehicle was stored at 4° C. […]
In vivo tumor growth delay study was performed as follows. Following implantation of the tumor cell lines, mice were monitored once weekly for tumor development. […]
(§4) Statistical and Graphical Analysis of the in vivo data. […] In order to adjust for the differing tumor sizes at the start of treatment, the relative tumor volume was calculated by dividing the tumor volume at each time point by the volume at baseline. […] When an animal exited the study due to tumor quintupling, the final tumor volume recorded for the animal was included with the data used to calculate the median volume at subsequent time points. […]

[2] = test system: MDA-MB-231 subcutaneous human xenograft; assay: In vivo tumor growth delay study, MDA-MB-231 subcutaneous human xenograft mouse model
Description: as §1, §2, §3
The vehicle used in this study was 0.5% (Hydroxypropyl)methyl cellulose (HPMC) and 0.2% Tween80 dissolved in deionized water. The pH of the vehicle was adjusted to 7.0-8.0 and the vehicle was stored at 4° C. On each day of in vivo treatment an appropriate mass of test compound was added to the vehicle at room temperature. The mixture was vortexed as necessary to generate a final concentration of 1.6 mg/mL.
In vivo tumor growth delay study was performed as follows. Following implantation of the tumor cell lines, mice were monitored once weekly for tumor development. Upon development of a tumor measuring at least 100 mm^3, tumor-bearing mice were stratified to one of 4 groups, utilizing 5 mice per group. Tumor volumes were between 100 and 500 mm^3. Vehicle or compound 569 (10 mg/kg) were administered by oral gavage once daily for three consecutive days (qd×3), alone or in combination with focal radiation. The delivered volume of vehicle or compound 569 was adjusted based on body weight of the individual animals. […]
as §4

SMILES: CC(C)NCCOc1ncc(-c2cc3c4c(cnc3cc2F)N(C)C(=O)C42CCC2)cc1NS(C)(=O)=O [Compound 569, N-(5-(7′-Fluoro-3′-methyl-2′-oxo-2′,3′-dihydrospiro[cyclobutane-1,1′-pyrrolo[2,3-c]quinolin]-8′-yl)-2-(2-(isopropylamino)ethoxy)pyridin-3-yl)methanesulfonamide]
- tumor growth curves and quintupling-free survival ([1]; FADU, Group 2 (10 mg/kg qd×3 alone) versus Group 1 (vehicle)): nearly identical to those for Group 1
- overall survival compared to Group 1, Group 2 and Group 3 ([1]; FADU, Group 4: 10 mg/kg + 3 Gy qd×3, P<0.01, logrank): significantly improved
- tolerability ([1]; FADU-bearing mice, 10 mg/kg qd×3 alone or with 3 Gy): well-tolerated
- tumor growth curves and quintupling-free survival ([2]; MDA-MB-231, Group 2 (10 mg/kg qd×3 alone) versus Group 1 (vehicle)): nearly identical to those for Group 1
- overall survival compared to Group 1, Group 2 and Group 3 ([2]; MDA-MB-231, Group 4: 10 mg/kg + 3 Gy qd×3, P<0.01, logrank): significantly improved
- animals found dead ([2]; MDA-MB-231, Group 4: 10 mg/kg + 3 Gy qd×3, unknown causes): One animal was found dead on Day 35
- tolerability ([2]; MDA-MB-231-bearing mice, 10 mg/kg qd×3 alone or with 3 Gy): well-tolerated
